Patent publication US11667652B2, “MCL1 inhibitors” (Gilead Sciences, Inc., priority 2019, dated 2023)
Like-named read-outs stand apart in the source and are kept apart here.

Columns and labels:
SKBR3 cells = test: SKBR3 Cell Viability Assay; assay type: cell-based; conditions: CellTiter Glo, read-out: MCL1 CV SKBR3 EC50
In short: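 Viability was measured by CellTiter-Glo luminescence after 72 h at 37° C, 5% CO2. Each well held 6,000 SKBR3 cells in McCoy's 5A/10% FBS dispensed onto serially diluted compound. Percent inhibition is relative to DMSO and 10 μM puromycin controls.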

MCL1/Bim = MCL1/Bim (Homo sapiens (Human), UniProt Q07820); test: MCL1/Bim Binding AlphaLISA Assay; conditions: recombinant human 6xHis-MCL1 (171-327), biotinylated Bim peptide (51-76)
In short: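 AlphaLISA with 0.0625 nM human 6×His-MCL1 (171-327) and 0.0625 nM biotinylated Bim (51-76) peptide in 20 mM Hepes pH 7.5, 150 mM NaCl, 0.002% Brij 35, 1 mM DTT, 0.01% BSA. Compound preincubated with MCL1 1 h, Bim added 2 h, then acceptor and donor beads 1 h each; % inhibition versus DMSO and no-protein/peptide controls.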

[1] = Homo sapiens, SK-BR-3, 72 hours

MCL1/Bim, sequence (Q07820 171-327): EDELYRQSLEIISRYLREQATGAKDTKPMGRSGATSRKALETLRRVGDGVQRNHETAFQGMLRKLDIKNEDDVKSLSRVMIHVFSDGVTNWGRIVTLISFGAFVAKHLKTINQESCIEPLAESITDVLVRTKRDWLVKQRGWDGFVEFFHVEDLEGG

| SMILES | EC50 (SKBR3 cells; 72 hours) [nM] | IC50 (MCL1/Bim) [nM] | EC50 (SKBR3 cells; [1]) [nM] |
| --- | --- | --- | --- |
| COc1nn(C)cc1C(=O)N[S@@]1(=O)=NC(=O)c2ccc3c(c2)N(C[C@@H]2CC[C@H]2[C@@H](OC)/C=C/[C@H](OCCn2ccnc2)[C@H](C)C1)C[C@@]1(CCCc2cc(Cl)ccc21)CO3 [Example 88] | 170 | 0.055 |  |
| COc1nn(C)cc1C(=O)N[S@@]1(=O)=NC(=O)c2ccc3c(c2)N(C[C@@H]2CC[C@H]2[C@@H](OC)/C=C/[C@H](OC(C)=O)[C@H](C)[C@H]1C)C[C@@]1(CCCc2cc(Cl)ccc21)CO3 [Example 91] | 88.4 | 0.177 |  |
| COc1nn(C)cc1C(=O)N[S@@]1(=O)=NC(=O)c2ccc3c(c2)N(C[C@@H]2CC[C@H]2[C@H](OC)/C=C/[C@H](OC(C)=O)[C@H](C)[C@H]1C)C[C@@]1(CCCc2cc(Cl)ccc21)CO3 [Example 92] | 796 | 2.59 |  |
| COc1nn(C)cc1C(=O)N[S@@]1(=O)=NC(=O)c2ccc3c(c2)N(C[C@@H]2CC[C@H]2[C@@H](OC)/C=C/[C@@H](OC)[C@H](C)C1)C[C@@]1(CCCc2cc(Cl)ccc21)CO3 [Example 93] |  | 0.457 | 556 |
| COc1nn(C)cc1C(=O)N[S@@]1(=O)=NC(=O)c2ccc3c(c2)N(C[C@@H]2CC[C@H]2[C@@](C)(OC)/C=C/C[C@H](C)C1)C[C@@]1(CCCc2cc(Cl)ccc21)CO3 [Example 95] |  | 4.39 | 3630 |
| COc1nn(C)cc1C(=O)N[S@@]1(=O)=NC(=O)c2ccc3c(c2)N(C[C@@H]2CC[C@H]2[C@](O)(CC(=O)N(C)C)/C=C/C[C@H](C)C1)C[C@@]1(CCCc2cc(Cl)ccc21)CO3 [Example 96] | 1410 | 0.075 |  |
| COc1nn(C)cc1C(=O)N[S@@]1(=O)=NC(=O)c2ccc3c(c2)N(C[C@@H]2CC[C@H]2[C@@](O)(CC(=O)N(C)C)/C=C/C[C@H](C)C1)C[C@@]1(CCCc2cc(Cl)ccc21)CO3 [Example 97] | 15.8 | 0.047 |  |
| COc1nn(C)cc1C(=O)N[S@@]1(=O)=NC(=O)c2ccc3c(c2)N(C[C@@H]2CC[C@H]2[C@@](O)(CC(=O)N2CCOCC2)/C=C/C[C@H](C)C1)C[C@@]1(CCCc2cc(Cl)ccc21)CO3 [Example 98] | 73.3 | 0.031 |  |
| COc1nn(C)cc1C(=O)N[S@@]1(=O)=NC(=O)c2ccc3c(c2)N(C[C@@H]2CC[C@H]2[C@@](O)(CC(=O)N2CCOCC2)/C=C/C[C@H](C)C1)C[C@@]1(CCCc2cc(Cl)ccc21)CO3 [Example 99] | 14.2 | 0.034 |  |
| COc1nn(C)cc1C(=O)N[S@@]1(=O)=NC(=O)c2ccc3c(c2)N(C[C@@H]2CC[C@H]2[C@@](O)(CC(=O)N2CCN(C)CC2)/C=C/C[C@H](C)C1)C[C@@]1(CCCc2cc(Cl)ccc21)CO3 [Example 100] | 35.4 | 0.038 |  |
| COc1nn(C)cc1C(=O)N[S@@]1(=O)=NC(=O)c2ccc3c(c2)N(C[C@@H]2CC[C@H]2[C@](O)(CC(=O)N2CCN(C)CC2)/C=C/C[C@H](C)C1)C[C@@]1(CCCc2cc(Cl)ccc21)CO3 [Example 101] | 27 | 0.026 |  |
| COc1nn(C)cc1C(=O)N[S@@]1(=O)=NC(=O)c2ccc3c(c2)N(C[C@@H]2CC[C@H]2[C@@](O)(CC(=O)N2CCN4CCOCC4C2)/C=C/C[C@H](C)C1)C[C@@]1(CCCc2cc(Cl)ccc21)CO3 (stereo partly shown) [Example 102] | 16.1 | 0.026 |  |
| COc1nn(C)cc1C(=O)N[S@@]1(=O)=NC(=O)c2ccc3c(c2)N(C[C@@H]2CC[C@H]2[C@](O)(CC(=O)N2CCN4CCOCC4C2)/C=C/C[C@H](C)C1)C[C@@]1(CCCc2cc(Cl)ccc21)CO3 (stereo partly shown) [Example 103] | 34.6 | 0.074 |  |
| COc1nn(C)cc1C(=O)N[S@@]1(=O)=NC(=O)c2ccc3c(c2)N(C[C@@H]2CC[C@H]2[C@@](O)(CC(=O)N2CCN(C4COC4)CC2)/C=C/C[C@H](C)C1)C[C@@]1(CCCc2cc(Cl)ccc21)CO3 [Example 104] | 54 | 0.034 |  |
| COc1nn(C)cc1C(=O)N[S@@]1(=O)=NC(=O)c2ccc3c(c2)N(C[C@@H]2CC[C@H]2[C@](O)(CC(=O)N2CCN(C4COC4)CC2)/C=C/C[C@H](C)C1)C[C@@]1(CCCc2cc(Cl)ccc21)CO3 [Example 105] | 163 | 0.112 |  |
| COc1nn(C)cc1C(=O)N[S@@]1(=O)=NC(=O)c2ccc3c(c2)N(C[C@@H]2CC[C@H]2[C@@](O)(CC(=O)N2CC(N4CCOCC4)C2)/C=C/C[C@H](C)C1)C[C@@]1(CCCc2cc(Cl)ccc21)CO3 [Example 106] | 133 | 0.038 |  |
| COc1nn(C)cc1C(=O)N[S@@]1(=O)=NC(=O)c2ccc3c(c2)N(C[C@@H]2CC[C@H]2[C@@](O)(C#CCN(C)C)/C=C/C[C@H](C)C1)C[C@@]1(CCCc2cc(Cl)ccc21)CO3 [Example 108] | 6 | 0.048 |  |
| COc1nn(C)cc1C(=O)N[S@@]1(=O)=NC(=O)c2ccc3c(c2)N(C[C@@H]2CC[C@H]2[C@](O)(C#CCN(C)C)/C=C/C[C@H](C)C1)C[C@@]1(CCCc2cc(Cl)ccc21)CO3 [Example 109] | 35.3 | 0.028 |  |
| COc1nn(C)cc1C(=O)N[S@@]1(=O)=NC(=O)c2ccc3c(c2)N(C[C@@H]2CC[C@H]2C(O)(C#CCN(C)C)/C=C/C[C@H](C)C1)C[C@@]1(CCCc2cc(Cl)ccc21)CO3 (stereo partly shown) [Example 110] | 27.6 | 0.045 |  |
| COc1nn(C)cc1C(=O)N[S@@]1(=O)=NC(=O)c2ccc3c(c2)N(C[C@@H]2CC[C@H]2[C@](CN2CCN4CCOC[C@@H]4C2)(OC)/C=C/C[C@H](C)C1)C[C@@]1(CCCc2cc(Cl)ccc21)CO3 [Example 111] |  | 0.211 | 26.3 |

Other lines, results leading:

| EC50 (SKBR3 cells; 72 hours) [nM] | IC50 (MCL1/Bim) [nM] | EC50 (SKBR3 cells; [1]) [nM] | SMILES |
| --- | --- | --- | --- |
|  | 0.086 | 10.4 | COc1nn(C)cc1C(=O)N[S@@]1(=O)=NC(=O)c2ccc3c(c2)N(C[C@@H]2CC[C@H]2[C@@](CN2CCN4CCOC[C@@H]4C2)(OC)/C=C/C[C@H](C)C1)C[C@@]1(CCCc2cc(Cl)ccc21)CO3 [Example 112] |
| 35.4 | 0.132 |  | COc1nn(C)cc1C(=O)N[S@@]1(=O)=NC(=O)c2ccc3c(c2)N(C[C@@H]2CC[C@H]2[C@@](O)(CCN2CCOCC2)/C=C/C[C@H](C)C1)C[C@@]1(CCCc2cc(Cl)ccc21)CO3 [Example 113] |
| 51 | 0.319 |  | COc1nn(C)cc1C(=O)N[S@@]1(=O)=NC(=O)c2ccc3c(c2)N(C[C@@H]2CC[C@H]2[C@](O)(CCN2CCOCC2)/C=C/C[C@H](C)C1)C[C@@]1(CCCc2cc(Cl)ccc21)CO3 [Example 114] |
|  | 0.029 | 16 | COc1nn(C)cc1C(=O)N[S@@]1(=O)=NC(=O)c2ccc3c(c2)N(C[C@@H]2CC[C@H]2[C@](CN2CCN(C4COC4)CC2)(OC)/C=C/C[C@H](C)C1)C[C@@]1(CCCc2cc(Cl)ccc21)CO3 [Example 115] |
|  | 0.102 | 13.4 | COc1nn(C)cc1C(=O)N[S@@]1(=O)=NC(=O)c2ccc3c(c2)N(C[C@@H]2CC[C@H]2[C@@](CN2CCN(C4COC4)CC2)(OC)/C=C/C[C@H](C)C1)C[C@@]1(CCCc2cc(Cl)ccc21)CO3 [Example 116] |
|  | 0.067 | 23.9 | COc1nn(C)cc1C(=O)N[S@@]1(=O)=NC(=O)c2ccc3c(c2)N(C[C@@H]2CC[C@H]2[C@@](CN2CC(OC)C2)(OC)/C=C/C[C@H](C)C1)C[C@@]1(CCCc2cc(Cl)ccc21)CO3 [Example 117] |
| 2520 | 0.634 |  | COc1nn(C)cc1C(=O)N[S@@]1(=O)=NC(=O)c2ccc3c(c2)N(C[C@@H]2CC[C@H]2[C@@H](OC)/C=C/[C@H](NC(C)=O)[C@H](C)C1)C[C@@]1(CCCc2cc(Cl)ccc21)CO3 [Example 118] |
| 244 | 0.035 |  | COc1nn(C)cc1C(=O)N[S@@]1(=O)=NC(=O)c2ccc3c(c2)N(C[C@@H]2CC[C@H]2/C=C/[C@@H](O)[C@H](NC(C)=O)[C@H](C)C1)C[C@@]1(CCCc2cc(Cl)ccc21)CO3 [Example 119] |
| 35.2 | 0.034 |  | COc1nn(C)cc1C(=O)N[S@@]1(=O)=NC(=O)c2ccc3c(c2)N(C[C@@H]2CC[C@H]2[C@@H](OC)/C=C/[C@@](C)(O)[C@H](C)C1)C[C@@]1(CCCc2cc(Cl)ccc21)CO3 [Example 120] |
| 67.9 | 0.047 |  | COc1nn(C)cc1C(=O)N[S@@]1(=O)=NC(=O)c2ccc3c(c2)N(C[C@@H]2CC[C@H]2[C@H](OC)/C=C/[C@@](C)(O)[C@H](C)C1)C[C@@]1(CCCc2cc(Cl)ccc21)CO3 [Example 121] |
|  | 0.03 | 17.7 | COc1nn(C)cc1C(=O)N[S@@]1(=O)=NC(=O)c2ccc3c(c2)N(C[C@@H]2CC[C@H]2[C@@H](OC)/C=C/[C@@](C)(OC)[C@H](C)C1)C[C@@]1(CCCc2cc(Cl)ccc21)CO3 [Example 122] |
|  | 0.135 | 69.7 | COc1nn(C)cc1C(=O)N[S@@]1(=O)=NC(=O)c2ccc3c(c2)N(C[C@@H]2CC[C@H]2[C@@H](OC)/C=C/[C@](C)(OC)[C@H](C)C1)C[C@@]1(CCCc2cc(Cl)ccc21)CO3 [Example 123] |
|  | 0.087 | 546 | COc1nn(C)cc1C(=O)N[S@@]1(=O)=NC(=O)c2ccc3c(c2)N(C[C@@H]2CC[C@H]2/C=C/C=C\[C@H](C)C1)C[C@@]1(CCCc2cc(Cl)ccc21)CO3 [Example 131] |
|  | 0.833 | 1020 | COc1nn(C)cc1C(=O)N[S@@]1(=O)=NC(=O)c2ccc3c(c2)N(C[C@@H]2CC[C@H]2[C@H](OC)[C@@H](OC)/C=C\[C@H](C)C1)C[C@@]1(CCCc2cc(Cl)ccc21)CO3 [Example 132] |
|  | 0.643 | 1370 | COc1nn(C)cc1C(=O)N[S@@]1(=O)=NC(=O)c2ccc3c(c2)N(C[C@@H]2CC[C@H]2[C@@H](OC)[C@H](OC)/C=C\[C@H](C)C1)C[C@@]1(CCCc2cc(Cl)ccc21)CO3 [Example 133] |
